Data taken from PubChem BioAssay AID1919002 (Molecular Pharmacology Branch, DTP, NCI, 2023).
Values joined by “and” are separate entries in the source; they are usually repeats but may differ in a detail not shown here. Equal entries are not always repeated. Values belong to the compound of their own block, whether it stands above or below them.

Test system: 743489-274-T-PDC complex spheroid growth
Assay: Anticancer human tumor 743489-274-T-PDC patient-derived renal cell carcinoma cell line growth inhibition [AhR]
Conditions: for viability, T/C: stronger effect = lower value
Procedure, shortened: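 Complex tumor spheroids co-cultured with HUVEC and human MSC stroma; AhR antagonists tested in combination with standard-of-care and investigational agents. Top concentration at or near clinical Cmax (else 10 microM), half-log dilutions; growth expressed as percent test/control.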

[1] = curve of first compound, second compound 0.1 µM
[2] = curve of first compound, second compound 0.316 µM
[3] = curve of first compound, second compound 1 µM
[4] = curve of first compound, second compound 3.16 µM
[5] = curve of first compound, second compound 10 µM
[6] = second compound 0.1 µM, first compound 0.0316 µM
[7] = second compound 0.1 µM, first compound 0.1 µM
[8] = second compound 0.1 µM, first compound 0.316 µM
[9] = second compound 0.1 µM, first compound 1 µM
[10] = second compound 0.316 µM, first compound 0.0316 µM
[11] = second compound 0.316 µM, first compound 0.1 µM
[12] = second compound 0.316 µM, first compound 0.316 µM
[13] = second compound 0.316 µM, first compound 1 µM
[14] = second compound 1 µM, first compound 0.0316 µM
[15] = second compound 1 µM, first compound 0.1 µM
[16] = second compound 1 µM, first compound 0.316 µM
[17] = second compound 1 µM, first compound 1 µM
[18] = second compound 3.16 µM, first compound 0.0316 µM
[19] = second compound 3.16 µM, first compound 0.1 µM
[20] = second compound 3.16 µM, first compound 0.316 µM
[21] = second compound 3.16 µM, first compound 1 µM
[22] = second compound 10 µM, first compound 0.0316 µM
[23] = second compound 10 µM, first compound 0.1 µM
[24] = second compound 10 µM, first compound 0.316 µM
[25] = second compound 10 µM, first compound 1 µM
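Note: spheroids exposed to agents for 7 days before readout.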
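Throughout, for viability, T/C: 100% = DMSO vehicle control wells.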

IC50 (curve of compound): > 10 µM
Compound: CC1COCCN1c1cc(C2(S(C)(=N)=O)CC2)nc(-c2ccnc3[nH]ccc23)n1 (centres undefined)
viability, T/C (compound 0.0316 µM): 101% (2×) and 98.1% | viability, T/C (compound 0.1 µM): 109% and 103% and 97.3% | viability, T/C (compound 0.316 µM): 101% and 110% and 96.7% | viability, T/C (compound 1 µM): 94.8% and 103% and 108% | viability, T/C (compound 3.16 µM): 98.2% and 102% and 104% | viability, T/C (compound 10 µM): 99.1% and 92% and 114%

IC50 [1]: > 1 µM | IC50 [2]: > 1 µM | IC50 [3]: > 1 µM | IC50 [4]: > 1 µM | IC50 [5]: > 1 µM
Compound: CC1COCCN1c1cc(-c2ccnn2C)c2ccnc(-c3ccn[nH]3)c2n1 (centres undefined) + Cc1cncc(-c2nc(NCCc3c[nH]c4ccccc34)c3ncn(C(C)C)c3n2)c1
viability, T/C (second compound 0.1 µM, first compound 0.00316 µM): 106% | viability, T/C (second compound 0.1 µM, first compound 0.01 µM): 106% | viability, T/C [6]: 113% | viability, T/C [7]: 105% | viability, T/C [8]: 100% | viability, T/C [9]: 84.5% | viability, T/C (second compound 0.316 µM, first compound 0.00316 µM): 99.7% | viability, T/C (second compound 0.316 µM, first compound 0.01 µM): 107% | viability, T/C [10]: 109% | viability, T/C [11]: 105% | viability, T/C [12]: 95.4% | viability, T/C [13]: 80.3% | viability, T/C (second compound 1 µM, first compound 0.00316 µM): 108% | viability, T/C (second compound 1 µM, first compound 0.01 µM): 104% | viability, T/C [14]: 116% | viability, T/C [15]: 99.8% | viability, T/C [16]: 102% | viability, T/C [17]: 85% | viability, T/C (second compound 3.16 µM, first compound 0.00316 µM): 120% | viability, T/C (second compound 3.16 µM, first compound 0.01 µM): 126% | viability, T/C [18]: 122% | viability, T/C [19]: 113% | viability, T/C [20]: 99.4% | viability, T/C [21]: 89.1% | viability, T/C (second compound 10 µM, first compound 0.00316 µM): 116% | viability, T/C (second compound 10 µM, first compound 0.01 µM): 148% | viability, T/C [22]: 143% | viability, T/C [23]: 142% | viability, T/C [24]: 124% | viability, T/C [25]: 109%

IC50 (curve of compound): > 10 µM
Compound: NS(=O)(=O)OCC1CC(n2ccc3c(NC4CCc5ccccc54)ncnc32)CC1O (centres undefined)
viability, T/C (compound 0.0316 µM): 102% and 104% and 93.9% | viability, T/C (compound 0.1 µM): 105% and 121% and 96.2% | viability, T/C (compound 0.316 µM): 114% and 108% and 103% | viability, T/C (compound 1 µM): 132% and 136% and 138% | viability, T/C (compound 3.16 µM): 137% and 132% and 156% | viability, T/C (compound 10 µM): 150% and 128% and 161%

IC50 [1]: > 10 µM | IC50 [2]: > 10 µM | IC50 [3]: > 10 µM | IC50 [4]: > 10 µM | IC50 [5]: > 10 µM
Compound: Nc1ccn(C2OC(CO)C(O)C2(F)F)c(=O)n1 (centres undefined) + Cc1cncc(-c2nc(NCCc3c[nH]c4ccccc34)c3ncn(C(C)C)c3n2)c1
viability, T/C [6]: 83.1% | viability, T/C [7]: 76.7% | viability, T/C [8]: 72.1% | viability, T/C [9]: 65.2% | viability, T/C (second compound 0.1 µM, first compound 3.16 µM): 65.7% | viability, T/C (second compound 0.1 µM, first compound 10 µM): 67.9% | viability, T/C [10]: 87.1% | viability, T/C [11]: 73.2% | viability, T/C [12]: 71.9% | viability, T/C [13]: 62.3% | viability, T/C (second compound 0.316 µM, first compound 3.16 µM): 72.3% | viability, T/C (second compound 0.316 µM, first compound 10 µM): 63.4% | viability, T/C [14]: 85.6% | viability, T/C [15]: 90.8% | viability, T/C [16]: 74.7% | viability, T/C [17]: 64.8% | viability, T/C (second compound 1 µM, first compound 3.16 µM): 79.2% | viability, T/C (second compound 1 µM, first compound 10 µM): 68.9% | viability, T/C [18]: 104% | viability, T/C [19]: 93.8% | viability, T/C [20]: 77.3% | viability, T/C [21]: 62.3% | viability, T/C (second compound 3.16 µM, first compound 3.16 µM): 74.3% | viability, T/C (second compound 3.16 µM, first compound 10 µM): 67.1% | viability, T/C [22]: 138% | viability, T/C [23]: 100% | viability, T/C [24]: 74.2% | viability, T/C [25]: 84.2% | viability, T/C (second compound 10 µM, first compound 3.16 µM): 78.5% | viability, T/C (second compound 10 µM, first compound 10 µM): 96.8%
